From PubChem BioAssay AID179 (DTP/NCI, 2004)
Several values for one entry are separate records, joined by “and”; a condition that tells them apart may be missing. Equal values may be shown once. Activity calls are given as the source filed them.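 Rule for the calls: active = compounds giving half or more protection of infected cells from virus-caused growth loss, again on retest; inactive = the rest.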

Test system: CEM cells HIV-1 protection, formazan growth assay
Experiment: NCI AIDS Antiviral Assay
Conditions: for IC50: measured here: growth of uninfected CEM cells
Procedure, shortened: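 Five concentrations of each compound were applied to infected and uninfected human CEM cells. Protection from HIV-1 was judged from growth measured with a soluble formazan assay.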

| SMILES | EC50 [µM] | IC50 | outcome |
| --- | --- | --- | --- |
| N/C(=N\N=C\c1cccc2ccccc12)N/N=C/c1cccc2ccccc12 | > 200 | 9.12 µM | – |
| COc1cc(C2c3cc4c(cc3OC(N3CCOCC3)C2C)OCO4)ccc1O (centres undefined) | > 200 | 5.13 µM | – |
| Cc1cn(C2CC(O)C(CN(O)C(N)=O)O2)c(=O)[nH]c1=O (centres undefined) | > 100 | > 100 µM | – |
| C=C(C)CCC1CCCCC(CN(C)C)C1=O (centres undefined) | > 200 | 110 µM | – |
| CCCC(=O)C(CC)/C(CCC(=O)N(Cc1ccccc1)Cc1ccccc1)=N/NC(=O)C[N+](C)(C)C (centres undefined) | – | – | inactive |
| COc1cc2c(cc1OC)C(Cc1cc(OCc3ccccc3)c(OC)cc1N)N(C)CC2 (centres undefined) | – | – | inactive |
| COc1ccc2[nH]c3c(cnn4cnnc34)c2c1 | – | – | inactive |
| Oc1c(Cl)cc(Cl)c2cccnc12 | – | – | inactive |
| CC(C)(C)C1=CC(=N/N=c2\scc(-c3ccccc3)n2Cc2ccccc2)C=C(C(C)(C)C)C1=O | > 5.62 | > 5.62 µM | – |
| OCCC1(O)CCC(O)CC1 (centres undefined) | – | – | inactive |
| Cc1[nH]nc2c1NC(=O)OCC2 | > 550 | > 550 µM | – |
| C[Si](C)(C)C(Sc1ccccc1)(Sc1ccccc1)Sc1ccccc1 | – | – | inactive |
| COC(=O)[C@@]12OC[C@]34[C@H]([C@@H](O)[C@@H]1O)[C@@]1(C)CC(=O)C(O)=C(C)[C@@H]1C[C@H]3OC(=O)[C@H](OC(=O)/C=C(\C)C(C)C)[C@@H]24 | > 123 | 0.0389 µM | – |
| COc1cc(/C=N/NC2=NCCCN2)ccc1O | > 200 | > 200 µM | – |
| c1onc2c1CCCC2 (tested in a mixture with another compound) | > 1620 | > 1620 µM | – |
| NC(=O)Cn1c(=O)oc2cc(C(=O)CN3CCOCC3)ccc21 | > 200 | > 200 µM | – |
| CC(C)c1ccccc1SCc1cc(=O)cc(CSc2ccccc2C(C)C)o1 | > 200 | 11.7 µM | – |
| Cc1cc(C)c2c(c1)NP(=S)(c1ccccc1)N2 (centres undefined) | > 200 | > 200 µM | – |
| Brc1cc2c(cc1Br)CN(c1ccccc1)C2 | – | – | inactive |
| CN(C)NC1=C([N+](=O)[O-])C=NN(c2ccccc2)C1 | > 27.5 | 0.468 µM | – |
| CCN(CC)CCCCC1CCN(CC(=O)N2CC(C)C(=O)Nc3ccccc32)CC1 (centres undefined) | > 251 | > 251 µM | – |
| N#CC(C(=O)C(=O)Nc1ccc(Cl)cc1)c1ccccc1 (centres undefined) | – | – | inactive |
| O=c1[nH]c2cc(Cl)ccc2nc1/C(=N/Nc1ccccc1)C(O)c1ccco1 (centres undefined) | > 575 | > 575 µM | – |

| SMILES | EC50 [µM] | IC50 | outcome |
| --- | --- | --- | --- |
| CCCCCCCCCCCC1=c2o[nH]c2=C(c2ccccn2)C(=O)C1=O | > 19.5 | > 19.5 µM | – |
| CCOC(=O)c1nc(SC)sc1NC(=O)c1ccccc1Cl | > 200 | 9.55 µM | – |
| CCOC(=O)c1cc(-c2ccc(OC)cc2)c([N+](=O)[O-])n1C | > 200 | 32.4 µM | – |
| COC(=O)c1ccc(C)cc1CC1Cc2cc(C)ccc2C1=O (centres undefined) | > 200 | > 200 µM | – |
| CCOC(=O)c1ccc(N=NC2Sc3nc4ccccc4n3C2=O)cc1 (centres undefined) | – | – | inactive |
| CC1=C2C3CCCC(C3=O)[C@H](C)C2CC1=O (some centres undefined) | – | – | inactive |
| CCO/C=C/c1cc2c(c3c1-c1c(cc(OC)c(OC)c1OC)C3=O)OCO2 | > 6.46 | > 6.46 µM | – |
| Nc1c(C(=O)O)nnc2ccc(Cl)cc12 | > 200 | 186 µM | – |
| C[C@]12CC[C@@H]3c4cc(OCC(F)(F)F)c(O)cc4CC[C@H]3[C@@H]1CC[C@@H]2O | > 0.2 | 0.0676 µM | – |
| c1ccc2c(c1)c1ccccc1c1nccnc21 | > 200 | 69.2 µM | – |
| O=C(CC(C(=O)c1ccsc1)c1ccccc1)c1cccs1 (centres undefined) | > 200 | 39.8 µM | – |
| C=C[C@]1(O)CCC[C@]2(C)C(=O)CCC12C (some centres undefined) | – | – | inactive |
| Nc1ncnc2c1nc1n2C2OC(CO)C(O)C2O1 (centres undefined) | > 339 | > 339 µM | – |
| CCN(CC)C1CS(=O)(=O)OC(c2ccccc2)=C1C (centres undefined) | > 316 | 22.4 µM | – |
| COCc1ccc2c(c1)C(O)NC(=O)O2 (centres undefined) | > 200 | 58.9 µM | – |
| C1=CC2SSSC2C1 (centres undefined) | > 251 | > 251 µM | – |
| NC(=O)C1=Cc2cccn2-c2ccccc2S1 | > 123 | 56.2 µM | – |
| COc1cc(OC)cc(-c2cc(=O)c3c(OC)c(OC)c(OC)c(OC)c3o2)c1 | > 200 | 26.9 µM | – |
| COc1ccc2c(c1)CCCN2CCCCCCCCCCN(CCC(C)C)CCC(C)C | > 77.6 | 9.55 µM | – |
| COc1cc([C@H]2CC(=O)C[C@H](c3cc(OC)c(OC)c(OC)c3)C23C(=O)c2ccccc2C3=O)cc(OC)c1OC | > 200 | > 200 µM | – |
| CCOC(=O)Cc1nc2sc(S(N)(=O)=O)nn2c1Br | > 200 | 10 µM | – |
| CCOC(=O)c1c(NC(=O)c2ccccc2)sc2c1CCCC2 | > 151 | > 151 µM | – |
| O=[N+]([O-])c1cc(C(F)(F)F)ccc1S(=O)(=O)c1ccccc1 | > 77.6 | 3.89 µM and 1.26 µM | – |

| SMILES | EC50 [µM] | IC50 | outcome |
| --- | --- | --- | --- |
| C=CC/C=C/C/C=C/CCCCCCCc1cccc(O)c1C(=O)O | > 105 | 56.2 µM | – |
| Nc1nc(N)c(-c2ccccc2)c(C(=O)Nc2ccccc2)n1 | > 407 | > 407 µM | – |
| O=c1nc(NC(c2ccccc2)(c2ccccc2)c2ccccc2)ccn1CCCl | – | – | inactive |
| O=C(Nc1ccccc1)C(=O)C(C(=O)c1ccccc1F)C1OC(=O)c2ccccc21 (centres undefined) | > 309 | 17.4 µM | – |
| CC12CCC([C@H](N3CCOCC3)/C1=N\OCCN1CCCC1)C2(C)C (some centres undefined) | > 251 | 138 µM | – |
| N#Cc1nc(/C=C/c2cccnc2)oc1N | > 200 | > 200 µM | – |
| O=Cc1c[nH]c2nccnc12 | > 380 | 372 µM | – |
| Cc1ccc2c(c1)CC1(C2=O)[C@H](c2ccccc2)C2C(=O)c3ccc(C)cc3C2[C@H]1c1ccccc1 (some centres undefined) | > 200 | – | – |
| COC[C@@H](N=CN1CCc2cc(OC)c(OC)cc2C1)C(C)(C)C | > 741 | > 741 µM | – |
| C[C@]12CCC3c4ccc(OC(=O)c5ccccc5)cc4CC[C@H]3C1CC[C@@H]2OC(=O)C12OC1CCC2=O (some centres undefined) | > 200 | 4.07 µM | – |
| CCN(CC)S(=O)(=O)c1ccc([O-])c(C(=O)[O-])c1.[Cu+2].[OH3+] | > 200 | 28.2 µM | – |
| O=C1NCN(c2ccccc2)C12CCN(CC1COc3ccccc3O1)CC2 (centres undefined) | > 200 | > 200 µM | – |
| CC[C@@H]1OC2(C)CC(S(=O)(=O)c3ccccc3O)CC1O2 (some centres undefined) | > 794 | 741 µM | – |
| O=C(NC1CCCCC1)/C(=C\c1ccc(/C=C(/NC(=O)c2ccccc2)C(=O)NC2CCCCC2)cc1)NC(=O)c1ccccc1 | > 200 | 120 µM | – |
| NC(=O)c1ncn(CC2(COC(=O)c3ccccc3)CCC2)n1 | > 200 | > 200 µM | – |
| Oc1cc(Cl)cc2cc(Cl)cnc12 | – | – | inactive |
| Cc1ccc(S(=O)(=O)c2ccc(C)cc2[N+](=O)[O-])cc1 | > 24.5 | > 24.5 µM | – |
| COC1(c2ccc(C)cc2C)OC(=O)c2c(C)cccc21 (centres undefined) | – | – | inactive |
| COc1ccc(-c2[nH]c3ccccc3c2CCNS(=O)(=O)c2ccc(C)cc2)cc1 | – | – | inactive |
| O=C(CCC(=O)Nc1ccccc1C(F)(F)F)N/N=C1\C(=N\NC(=O)CCC(=O)Nc2ccccc2C(F)(F)F)C(c2ccc3c(c2)OCO3)Oc2ccccc21 (centres undefined) | > 23.4 | > 23.4 µM | – |
| O=C(O)c1cccc2cccc(-c3c4ccc(=O)c(O)c-4oc4c(O)c(O)ccc34)c12 | 29.5 | 33.1 µM | – |
| CC1(C)CC(=O)CC(=Nc2ccc([N+](=O)[O-])cc2)C1 | > 52.5 | > 52.5 µM | – |
| O=[N+]([O-])c1cc(-c2ccc([As](=O)(O)O)cc2)ccc1[As](=O)(O)O | > 200 | > 200 µM | – |

| SMILES | EC50 [µM] | IC50 | outcome |
| --- | --- | --- | --- |
| CC1(C)O[C@@H]2C[C@H]3[C@@H]4C[C@H](F)C5=CC(=O)C=C[C@]5(C)[C@@]4(F)[C@@H](O)C[C@]3(C)[C@]2(C(=O)CO)O1 | > 2 | 0.00741 µM | – |
| COc1ccc(C2NC(=O)N3C(c4ccc(OC)cc4)NC(=O)N23)cc1 (centres undefined) | – | – | inactive |
| Nc1cc2[nH]c(=O)c(=O)[nH]c2cc1N | > 200 | 63.1 µM | – |
| O=c1cc(N=P(c2ccccc2)(c2ccccc2)c2ccccc2)n(-c2ccccc2)c(=O)n1-c1ccccc1 | – | – | inactive |
| CCOC(=O)/C(=C\c1ccc(C(F)(F)F)cc1)[Se]c1ccccc1 | > 18.2 | > 18.2 µM | – |
| Nc1ccc(S(=O)(=O)Cc2ccc(C(=O)O)cc2[N+](=O)[O-])cc1 | > 107 | > 107 µM | – |
| Cc1cc(CN(Cc2ccccc2)Cc2nc3ccccc3[nH]2)c(O)c(CN(Cc2nc3ccccc3[nH]2)Cc2nc3ccccc3[nH]2)c1 | > 200 | 24.5 µM | – |
| O=c1[nH]c2nc3ccccc3c(=O)n2nc1Cc1ccccc1 | > 44.7 | > 44.7 µM | – |
| Oc1ccc2ccccc2c1OCc1nnc(CCCCCCCCc2nnc(COc3c(O)ccc4ccccc34)o2)o1 | > 200 | 47.9 µM | – |
| CCCCCCCCCCCCSC(=S)c1c(C)[nH]n(-c2ccccc2)c1=O | > 42.7 | 15.8 µM | – |
| O=S1Nc2cccc(C(F)(F)F)c2S1 (centres undefined) | > 57.5 | > 57.5 µM | – |
| COc1ccccc1/C=C\C#N | > 85.1 | > 85.1 µM | – |
| COC(=O)C12C(=CCP1(C)=O)C(c1ccccc1)=NN2c1ccccc1 (centres undefined) | > 27.5 | > 27.5 µM | – |
| CC1=CC(O)(c2ccccc2)C(N2CCOCC2)N1O (centres undefined) | > 200 | > 200 µM | – |
| CC(C)=NOC(=O)Nc1cccc2c1OCO2 | > 200 | > 200 µM | – |
| C[C@]12CCC[C@H](Cl)C1(O)C[C@H](C(=O)O)CC2 (some centres undefined) | – | – | inactive |
| Cc1ccc(/C=C2\CN(C)CC3=C2OC(N)=C(C#N)C3c2ccc(C)cc2)cc1 (centres undefined) | > 200 | 10.2 µM | – |
| CCOC(=O)CCC(NC(=O)c1ccc(Nc2nc3ccccc3nc2-c2cccs2)cc1)C(=O)OCC (centres undefined) | > 200 | 13.5 µM | – |
| CCc1cc(Cc2cc(CC)c(NC(=O)C(=O)CC(=O)c3sc(-c4cccnc4)nc3C)c(CC)c2)cc(CC)c1NC(=O)C(=O)CC(=O)c1sc(-c2cccnc2)nc1C | > 105 | > 105 µM | – |
| Cc1ccc(-c2n[nH]c(=O)n2/N=C\c2ccc([N+](=O)[O-])cc2)cc1 | > 200 | 58.9 µM | – |
